From patent publication US20240343704A1, “HALO-SUBSTITUTED AMINO PYRIDINE COMPOUNDS AS INHIBITORS OF THE HAEMATOPOIETIC PROGENITOR KINASE 1 (HPK1)” (priority 2021, published 2024)

Each compound was assayed against T1, Recombinant (1-346) HPK1 (h) (Homo sapiens, UniProt Q92918) (assay: HPK1 Human STE Kinase Enzymatic Radiometric Assay). Conditions: read-out: HPK1 IC50 nM Range*.
T1 construct: Recombinant (1-346) HPK1 (h) is incubated with 8 mM MOPS pH 7.0
T1 sequence (Q92918 1-346): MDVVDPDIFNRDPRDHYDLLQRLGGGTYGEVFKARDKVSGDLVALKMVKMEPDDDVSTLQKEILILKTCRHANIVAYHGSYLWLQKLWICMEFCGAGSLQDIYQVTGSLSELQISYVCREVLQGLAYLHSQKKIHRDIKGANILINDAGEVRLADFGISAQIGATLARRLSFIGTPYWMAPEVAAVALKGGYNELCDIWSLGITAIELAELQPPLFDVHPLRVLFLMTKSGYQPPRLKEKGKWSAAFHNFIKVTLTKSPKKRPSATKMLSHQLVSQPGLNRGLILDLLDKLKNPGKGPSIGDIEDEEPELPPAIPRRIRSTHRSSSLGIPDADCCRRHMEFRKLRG
Type: biochemical
Description: A stock solution of 10 mM of test compound is prepared in DMSO. The compound plate was prepared by 3-fold and 9-point serial dilutions. […] The reaction is initiated by The addition of the Mg/ATP mix. After incubation for 40 minutes at RT, the reaction is stopped by the addition of phosphoric acid to a concentration of 0.5%.

IC50 [nM]	SMILES
11 to 100	CN(C)Cc1cc(-c2cc(-c3cc4c(cc3F)C(=O)NCC4)c(N)nc2F)ccc1OCC1CC1 [I-507, 6-(2-amino-5-(4-(cyclopropylmethoxy)-3-((dimethylamino)methyl)phenyl)-6-fluoropyridin-3-yl)-7-fluoro-3,4-dihydroisoquinolin-1(2H)-one]
0.1 to 10	CN1C[C@@H]2C[C@]2(c2ccc(-c3cc(-c4ccc5c(=O)[nH]cc(F)c5c4)c(N)nc3F)cc2)C1 [I-470, 6-(2-amino-6-fluoro-5-(4-((1S,5R)-3-methyl-3-azabicyclo[3.1.0]hexan-1-yl)phenyl)pyridin-3-yl)-4-fluoroisoquinolin-1(2H)-one]
0.1 to 10	Nc1nc(F)c(-c2ccc(N3CCN(CCCC(F)F)CC3)cn2)cc1-c1ccc2c(c1)CCNC2=O [I-593, 6-(6′-amino-5-(4-(4,4-difluorobutyl)piperazin-1-yl)-2′-fluoro-[2,3′-bipyridin]-5′-yl)-3,4-dihydroisoquinolin-1(2H)-one]
0.1 to 10	Nc1nc(F)c(-c2ccc(N3CCN(CC4CC4(F)F)CC3)cc2)cc1-c1ccc2c(c1)CCNC2=O (centres unmarked) [I-640, 6-(2-amino-5-(4-(4-((2,2-difluorocyclopropyl)methyl)piperazin-1-yl)phenyl)-6-fluoropyridin-3-yl)-3,4-dihydroisoquinolin-1(2H)-one]
11 to 100	CN(C)Cc1cc(-c2cc(-c3cc4c(cc3F)C(=O)NCC4)c(N)nc2F)ccc1OCC(F)F [I-556, 6-(2-amino-5-(4-(2,2-difluoroethoxy)-3-((dimethylamino)methyl)phenyl)-6-fluoropyridin-3-yl)-7-fluoro-3,4-dihydroisoquinolin-1(2H)-one]
0.1 to 10	CC(C)N1CCN(c2ccc(-c3cc(-c4ncc5c(n4)CCNC5=O)c(N)nc3F)cc2)CC1 [I-458, 2-(2-amino-6-fluoro-5-(4-(4-isopropylpiperazin-1-yl)phenyl)pyridin-3-yl)-7,8-dihydropyrido[4,3-d]pyrimidin-5(6H)-one]
0.1 to 10	Cc1[nH]c(=O)c2ccc(-c3cc(-c4ccc(N5CCN(CC6CC6)CC5)cc4)c(F)nc3N)cc2c1F [I-456, 6-(2-amino-5-(4-(4-(cyclopropylmethyl)piperazin-1-yl)phenyl)-6-fluoropyridin-3-yl)-4-fluoro-3-methylisoquinolin-1(2H)-one]
11 to 100	CN(C)Cc1cc(-c2cc(-c3cc4c(cc3F)C(=O)NCC4)c(N)nc2F)ccc1OC1CCOCC1 [I-531, 6-(2-amino-5-(3-((dimethylamino)methyl)-4-((tetrahydro-2H-pyran-4-yl)oxy)phenyl)-6-fluoropyridin-3-yl)-7-fluoro-3,4-dihydroisoquinolin-1(2H)-one]
101 to 1000	CC(C)N1CCN(c2ccc(-c3cc(-c4ccc5c(=O)[nH]c(C6CC6)nc5c4)c(N)nc3F)cc2)CC1 [I-412, 7-(2-amino-6-fluoro-5-(4-(4-isopropylpiperazin-1-yl)phenyl)pyridin-3-yl)-2-cyclopropylquinazolin-4(3H)-one]
0.1 to 10	Cc1[nH]c(=O)c2c(F)cc(-c3cc(-c4ccc(N5CCN(CC6CC6)CC5)cc4)c(F)nc3N)cc2c1F [I-529, 6-(2-amino-5-(4-(4-(cyclopropylmethyl)piperazin-1-yl)phenyl)-6-fluoropyridin-3-yl)-4,8-difluoro-3-methylisoquinolin-1(2H)-one]
11 to 100	CN(C)[C@@H]1COc2ccc(-c3cc(-c4ccc5c(=O)[nH]cc(F)c5c4)c(N)nc3F)cc21 [I-630, (S)-6-(2-amino-5-(3-(dimethylamino)-2,3-dihydrobenzofuran-5-yl)-6-fluoropyridin-3-yl)-4-fluoroisoquinolin-1(2H)-one]
11 to 100	CN1CCC[C@H]1c1cccc(-c2cc(-c3cc4c(cc3F)C(=O)NCC4)c(N)nc2F)c1 [I-444, (S)-6-(2-amino-6-fluoro-5-(3-(1-methylpyrrolidin-2-yl)phenyl)pyridin-3-yl)-7-fluoro-3,4-dihydroisoquinolin-1(2H)-one]
11 to 100	COC1CCN(Cc2cc(-c3cc(-c4ccc5c(c4)CCNC5=O)c(N)nc3F)ccc2N2CCSCC2)CC1 [I-512, 6-(2-amino-6-fluoro-5-(3-((4-methoxypiperidin-1-yl)methyl)-4-thiomorpholinophenyl)pyridin-3-yl)-3,4-dihydroisoquinolin-1(2H)-one]
101 to 1000	CC(C)(N)c1cc(-c2cc(-c3ccc4c(c3)CCNC4=O)c(N)nc2F)ccc1F [I-625, 6-(2-amino-5-(3-(2-aminopropan-2-yl)-4-fluorophenyl)-6-fluoropyridin-3-yl)-3,4-dihydroisoquinolin-1(2H)-one]
11 to 100	CC(=O)N1CCC(Oc2ccc(-c3cc(-c4cc5c(cc4F)C(=O)NCC5)c(N)nc3F)cc2CN(C)C)CC1 [I-569, 6-(5-(4-((1-acetylpiperidin-4-yl)oxy)-3-((dimethylamino)methyl)phenyl)-2-amino-6-fluoropyridin-3-yl)-7-fluoro-3,4-dihydroisoquinolin-1(2H)-one]
11 to 100	CC(C)N1CCN(c2ccc(-c3cc(-c4cc(F)c5c(c4)CNC5=O)c(N)nc3F)cc2)CC1 [I-637, 5-(2-amino-6-fluoro-5-(4-(4-isopropylpiperazin-1-yl)phenyl)pyridin-3-yl)-7-fluoroisoindolin-1-one]
11 to 100	CN(C)Cc1c(N2CCOCC2)ccc(-c2cc(-c3ccc4c(c3)CCNC4=O)c(N)nc2F)c1F [I-606, 6-(2-amino-5-(3-((dimethylamino)methyl)-2-fluoro-4-morpholinophenyl)-6-fluropyridin-3-yl)-3,4-dihydroisoquinolin-1(2H)-one]
0.1 to 10	Nc1nc(F)c(-c2ccc(N3CCOCC3)c(F)c2)cc1-c1cc(F)c2c(c1)CCNC2=O [I-361, 6-(2-amino-6-fluoro-5-(3-fluoro-4-morpholinophenyl)pyridin-3-yl)-8-fluoro-3,4-dihydroisoquinolin-1(2H)-one]
11 to 100	Cc1nc2cc(-c3cc(-c4ccc(N5C[C@@H](C)O[C@@H](C)C5)c(CN(C)C)c4)c(F)nc3N)ccc2c(=O)[nH]1 [I-595, 7-(2-amino-5-(3-((dimethylamino)methyl)-4-((2R,6S)-2,6-dimethylmorpholino)phenyl)-6-fluoropyridin-3-yl)-2-methylquinazolin-4(3H)-one]
0.1 to 10	Cc1c[nH]c(=O)c2c(F)cc(-c3cc(-c4ccc(N5CCN(C(C)C)CC5)cc4)c(F)nc3N)cc12 [I-571, 6-(2-amino-6-fluoro-5-(4-(4-isopropylpiperazin-1-yl)phenyl)pyridin-3-yl)-8-fluoro-4-methylisoquinolin-1(2H)-one]
0.1 to 10	Cc1nc2cc(-c3cc(-c4ccc(N5CCN(C6CCC6)CC5)cc4)c(F)nc3N)cc(F)c2c(=O)[nH]1 [I-473, 7-(2-amino-5-(4-(4-cyclobutylpiperazin-1-yl)phenyl)-6-fluoropyridin-3-yl)-5-fluoro-2-methylquinazolin-4(3H)-one]
11 to 100	CC(C)N(C)Cc1cc(-c2cc(-c3ccc4c(c3)CCNC4=O)c(N)nc2F)ccc1N1CCOCC1 [I-614, 6-(2-amino-6-fluoro-5-(3-((isopropyl(methyl)amino)methyl)-4-morpholinoophenyl)pyridin-3-yl)-3,4-dihydroisoquinolin-1(2H)-one]
0.1 to 10	CN(C)Cc1cc(-c2cc(-c3ccc4c(=O)[nH]ccc4c3)c(N)nc2F)ccc1N1CCN(CCCC(F)F)CC1 [I-453, 6-(2-amino-5-(4-(4-(4,4-difluorobutyl)piperazin-1-yl)-3-((dimethylamino)methyl)phenyl)-6-fluoropyridin-3-yl)isoquinolin-1(2H)-one]
0.1 to 10	CC(C)N1CCN(c2ccc(-c3cc(-c4cc(F)c5c(c4)OCCNC5=O)c(N)nc3F)cc2)CC1 [I-636, 8-(2-amino-6-fluoro-5-(4-(4-isopropylpiperazin-1-yl)phenyl)pyridin-3-yl)-6-fluoro-3,4-dihydrobenzo[f][1,4]oxazepin-5(2H)-one]
11 to 100	Cc1cc2cc(-c3cc(-c4ccc(N5CCOCC5)c(CN(C)C)c4)c(F)nc3N)cc(F)c2c(=O)[nH]1 [I-505, 6-(2-amino-5-(3-((dimethylamino)methyl)-4-morpholinophenyl)-6-fluoropyridin-3-yl)-8-fluoro-3-methylisoquinolin-1(2H)-one]
11 to 100	Nc1nc(F)c(-c2ccc(N3CCOCC3)c(CN3CCOCC3)c2)cc1-c1ccc2c(c1)CCNC2=O [I-496, 6-(2-amino-6-fluoro-5-(4-morpholino-3-(morpholinomethyl)phenyl)pyridin-3-yl)-3,4-dihydroisoquinolin-1(2H)-one]
0.1 to 10	CN(C)Cc1cc(-c2cc(-c3ccc4c(c3)CCNC4=O)c(N)nc2F)ccc1C1CCOC1 (centres unmarked) [I-620, 6-(2-amino-5-(3-((dimethylamino)methyl)-4-(tetrahydrofuran-3-yl)phenyl)-6-fluoropyridin-3-yl)-3,4-dihydroisoquinolin-1(2H)-one]
0.1 to 10	Cc1cc2cc(-c3cc(-c4ccc(N5CCN(CCCC(F)F)CC5)cc4)c(F)nc3N)cc(F)c2c(=O)[nH]1 [I-567, 6-(2-amino-5-(4-(4-(4,4-difluorobutyl)piperazin-1-yl)phenyl)-6-fluoropyridin-3-yl)-8-fluoro-3-methylisoquinolin-1(2H)-one]
11 to 100	Nc1nc(F)c(-c2ccc(N3CCOCC3)c(CN3CCCCC3)c2)cc1-c1ccc2c(c1)CCNC2=O [I-559, 6-(2-amino-6-fluoro-5-(4-morpholino-3-(piperidin-1-ylmethyl)phenyl)pyridin-3-yl)-3,4-dihydroisoquinolin-1(2H)-one]
